Reference: ChEMBL document CHEMBL1743341, “Cytochrome p450 enzymes mechanism based inhibitors: common sub-structures and reactivity” (Curr Drug Metab, 2005)
“Also recorded” adds a separate entry of the source.

Key:
Cytochrome P450 2C11 = molecular target: T1, Cytochrome P450 2C11 (Rattus norvegicus, UniProt P08683); assay: Mechanism based inhibition of rat cytochrome P450 CYP2C11 measured by 2-alpha and 16-alpha hydroxylation of testosterone; format: ADME
T1 sequence (P08683 whole entry): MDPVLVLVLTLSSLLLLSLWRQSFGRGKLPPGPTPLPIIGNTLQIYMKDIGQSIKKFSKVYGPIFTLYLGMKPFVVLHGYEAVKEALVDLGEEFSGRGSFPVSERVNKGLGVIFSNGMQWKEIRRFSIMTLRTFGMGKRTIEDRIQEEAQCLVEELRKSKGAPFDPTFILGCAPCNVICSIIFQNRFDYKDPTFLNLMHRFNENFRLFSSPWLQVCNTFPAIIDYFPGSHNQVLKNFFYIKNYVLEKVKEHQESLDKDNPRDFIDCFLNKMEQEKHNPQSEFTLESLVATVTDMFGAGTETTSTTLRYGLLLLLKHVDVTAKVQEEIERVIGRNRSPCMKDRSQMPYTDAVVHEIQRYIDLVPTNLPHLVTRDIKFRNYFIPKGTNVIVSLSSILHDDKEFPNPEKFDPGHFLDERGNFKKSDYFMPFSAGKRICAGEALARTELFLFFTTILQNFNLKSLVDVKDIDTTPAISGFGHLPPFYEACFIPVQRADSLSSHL

CYP1A2 = molecular target: T2, CYP1A2 (Homo sapiens, UniProt P05177); assay: (§1) Mechanism based inhibition of human cytochrome P450 1A2 measured by phenacetin O-deethylation (POD); format: ADME; conditions: human, probe phenacetin (O-deethylation, POD)
T2 sequence (P05177 whole entry): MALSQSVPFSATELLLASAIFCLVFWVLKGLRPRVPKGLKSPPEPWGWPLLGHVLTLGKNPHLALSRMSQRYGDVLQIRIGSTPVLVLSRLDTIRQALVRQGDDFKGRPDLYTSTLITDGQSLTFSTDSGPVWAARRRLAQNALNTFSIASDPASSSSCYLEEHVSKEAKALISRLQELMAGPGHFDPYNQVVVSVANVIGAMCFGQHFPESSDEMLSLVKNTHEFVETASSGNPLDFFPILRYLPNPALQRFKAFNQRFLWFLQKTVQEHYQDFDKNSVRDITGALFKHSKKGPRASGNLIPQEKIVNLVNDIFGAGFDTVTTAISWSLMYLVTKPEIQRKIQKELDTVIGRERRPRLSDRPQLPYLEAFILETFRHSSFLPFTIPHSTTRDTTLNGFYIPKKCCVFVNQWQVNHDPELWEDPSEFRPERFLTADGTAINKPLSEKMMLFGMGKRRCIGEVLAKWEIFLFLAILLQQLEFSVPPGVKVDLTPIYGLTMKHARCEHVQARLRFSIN

Cytochrome P450 1A2 [1] = molecular target: T3, Cytochrome P450 1A2 (Homo sapiens, UniProt P05177); assay: as §1; format: ADME
T3 sequence (P05177 whole entry): T2 sequence (P05177 whole entry)

CYP2B1 = molecular target: T4, CYP2B1 (Rattus norvegicus, UniProt P00176); assay: (§2) Mechanism based inhibition of rat cytochrome P450 CYP2B1 measured by 7-EFC O-deethylation activity; format: ADME; conditions: rat, probe 7-EFC (O-deethylation)
T4 sequence (P00176 whole entry): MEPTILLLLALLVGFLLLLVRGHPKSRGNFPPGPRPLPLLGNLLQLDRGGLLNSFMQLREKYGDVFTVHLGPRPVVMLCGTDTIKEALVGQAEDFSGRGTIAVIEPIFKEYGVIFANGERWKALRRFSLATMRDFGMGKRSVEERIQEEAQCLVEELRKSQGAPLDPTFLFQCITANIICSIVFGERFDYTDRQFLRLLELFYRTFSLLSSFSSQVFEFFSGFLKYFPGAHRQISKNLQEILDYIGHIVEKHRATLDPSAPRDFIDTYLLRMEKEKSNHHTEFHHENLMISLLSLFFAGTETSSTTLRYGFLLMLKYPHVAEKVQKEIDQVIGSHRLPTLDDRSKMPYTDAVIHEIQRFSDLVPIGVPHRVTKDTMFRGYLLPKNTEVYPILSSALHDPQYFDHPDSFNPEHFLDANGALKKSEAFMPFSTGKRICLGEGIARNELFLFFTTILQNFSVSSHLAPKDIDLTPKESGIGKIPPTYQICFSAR

Cytochrome P450 2B1 [2] = molecular target: T5, Cytochrome P450 2B1 (Rattus norvegicus, UniProt P00176); assay: as §2; format: ADME
T5 sequence (P00176 whole entry): T4 sequence (P00176 whole entry)

Cytochrome P450 2D6 = Cytochrome P450 2D6 (Homo sapiens, UniProt P10635); assay: Mechanism based inhibition of human cytochrome P450 2D6 measured by […] 1'-hydroxylation; format: ADME
Sequence of Cytochrome P450 2D6 (P10635 whole entry): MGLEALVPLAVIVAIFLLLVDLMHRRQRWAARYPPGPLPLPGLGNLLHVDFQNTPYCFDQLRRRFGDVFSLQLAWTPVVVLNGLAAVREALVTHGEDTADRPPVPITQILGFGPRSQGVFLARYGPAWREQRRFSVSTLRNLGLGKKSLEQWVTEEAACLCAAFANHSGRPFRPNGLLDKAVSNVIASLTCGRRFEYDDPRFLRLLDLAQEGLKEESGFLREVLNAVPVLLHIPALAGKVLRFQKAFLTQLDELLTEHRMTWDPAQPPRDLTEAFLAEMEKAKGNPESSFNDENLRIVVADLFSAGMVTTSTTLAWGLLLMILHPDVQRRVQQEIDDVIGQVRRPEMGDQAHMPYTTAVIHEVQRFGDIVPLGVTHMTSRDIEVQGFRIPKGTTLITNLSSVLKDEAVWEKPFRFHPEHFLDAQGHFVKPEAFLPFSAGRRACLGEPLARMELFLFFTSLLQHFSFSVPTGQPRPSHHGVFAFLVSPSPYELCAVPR

Cytochrome P450 2C9 = Cytochrome P450 2C9 (Homo sapiens, UniProt P11712); assay: Mechanism based inhibition of human cytochrome P450 2C9 measured by diclofenac 4-hydroxylation; format: ADME
Sequence of Cytochrome P450 2C9 (P11712 whole entry): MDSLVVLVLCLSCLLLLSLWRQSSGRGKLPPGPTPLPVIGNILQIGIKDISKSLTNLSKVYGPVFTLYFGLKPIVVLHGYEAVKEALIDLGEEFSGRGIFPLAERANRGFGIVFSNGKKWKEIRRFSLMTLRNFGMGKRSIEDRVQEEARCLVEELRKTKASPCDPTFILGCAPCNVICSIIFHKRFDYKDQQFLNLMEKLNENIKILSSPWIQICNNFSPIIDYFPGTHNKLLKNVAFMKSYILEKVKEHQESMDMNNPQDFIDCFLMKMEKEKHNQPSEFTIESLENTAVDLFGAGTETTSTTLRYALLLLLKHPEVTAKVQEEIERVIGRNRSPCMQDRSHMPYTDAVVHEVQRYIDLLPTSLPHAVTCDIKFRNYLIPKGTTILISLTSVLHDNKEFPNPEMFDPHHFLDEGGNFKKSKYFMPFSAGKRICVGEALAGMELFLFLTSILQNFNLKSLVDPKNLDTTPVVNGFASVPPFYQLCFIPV

Cytochrome P450 2B1 [3] = molecular target: T5, Cytochrome P450 2B1; assay: Mechanism based inhibition of rat cytochrome P450 CYP2B1; format: ADME; conditions: rat
CYP2C8 = molecular target: T6, CYP2C8 (Homo sapiens, UniProt P10632); assay: in vitro; conditions: recombinant CYP2C8, probe paclitaxel
T6 sequence (P10632 whole entry): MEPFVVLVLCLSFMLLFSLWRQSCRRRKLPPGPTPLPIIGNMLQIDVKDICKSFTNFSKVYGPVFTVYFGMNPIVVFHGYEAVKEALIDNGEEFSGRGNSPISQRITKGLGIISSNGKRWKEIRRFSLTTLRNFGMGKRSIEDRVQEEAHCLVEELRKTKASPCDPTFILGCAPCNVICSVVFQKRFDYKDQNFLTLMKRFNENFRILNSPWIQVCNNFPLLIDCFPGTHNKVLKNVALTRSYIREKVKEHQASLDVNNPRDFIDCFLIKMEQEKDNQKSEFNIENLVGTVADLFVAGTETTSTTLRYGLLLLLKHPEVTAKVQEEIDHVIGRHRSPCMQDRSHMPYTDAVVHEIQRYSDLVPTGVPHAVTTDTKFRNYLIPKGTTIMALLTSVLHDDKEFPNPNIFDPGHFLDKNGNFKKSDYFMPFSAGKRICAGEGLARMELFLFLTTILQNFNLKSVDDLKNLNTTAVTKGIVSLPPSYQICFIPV
Description: (§3) Mechanism based inhibition of human cytochrome P450 2C8 measured by paclitaxel hydroxylation using a recombinant system

Cytochrome P450 2C8 = molecular target: T7, Cytochrome P450 2C8 (Homo sapiens, UniProt P10632)
T7 sequence (P10632 whole entry): T6 sequence (P10632 whole entry)
Description: as §3

Cytochrome P450 1A2 [4] = molecular target: T3, Cytochrome P450 1A2; assay: Mechanism based inhibition of human cytochrome P450 1A2 measured by 7-ethoxyresorufin O-deethylation (EROD)

## CNCCC(Oc1ccccc1OC)c1ccccc1 (stereo unspecified) [NISOXETINE]
Cytochrome P450 2C11
  mechanism based inhibition: Cytochrome P450 mechanistic inhibitor: PMID 14555335

## CNCCCN1c2ccccc2CCc2ccccc21 [DESIPRAMINE]
Cytochrome P450 2C11
  mechanism based inhibition: Cytochrome P450 mechanistic inhibitor: PMID 14555335

## CC(c1cc2ccccc2s1)N(O)C(N)=O (racemic) [ZILEUTON]
CYP1A2
  kinact: 0.000583 s⁻¹
Cytochrome P450 1A2 [1]
  Ki: 117 µM

## C#CCN(C)CCCOc1ccc(Cl)cc1Cl [CLORGILINE]
CYP2B1
  kinact: 0.00467 s⁻¹
Cytochrome P450 2B1 [2]
  Ki: 1.5 µM

## COc1ccc2c(c1OC)C(=O)O[C@@H]2[C@H]1c2cc3c(cc2CCN1C)OCO3 [HYDRASTINE]
Cytochrome P450 2D6
  mechanism based inhibition: Cytochrome P450 mechanistic inhibitor: PMID 14570772
Cytochrome P450 2C9
  mechanism based inhibition: Cytochrome P450 mechanistic inhibitor: PMID 14570772

## CC(C)(OO)c1ccccc1 [CUMENE HYDROPEROXIDE]
Cytochrome P450 2B1 [3]
  mechanism based inhibition: Cytochrome P450 mechanistic inhibitor: PMID 8416964

## C[C@@H](c1cc2ccccc2s1)N(O)C(N)=O
CYP1A2
  kinact: 0.000617 s⁻¹
Cytochrome P450 1A2 [1]
  Ki: 98.2 µM

## CNCCC(Oc1ccc(C(F)(F)F)cc1)c1ccccc1 (stereo unspecified) [FLUOXETINE]
Cytochrome P450 2C11
  mechanism based inhibition: Cytochrome P450 mechanistic inhibitor: PMID 14555335

## CNCCC=C1c2ccccc2CCc2ccccc21 [NORTRIPTYLINE]
CYP2C8
  kinact: 0.0006 s⁻¹
Cytochrome P450 2C11
  mechanism based inhibition: Cytochrome P450 mechanistic inhibitor: PMID 1435757; also recorded: Cytochrome P450 mechanistic inhibitor: PMID 14555335
Cytochrome P450 2C8
  Ki: 49.9 µM

## Nc1c2c(nc3ccccc13)CCCC2 [TACRINE]
Cytochrome P450 1A2 [4]
  Ki: 1.94 µM
